Data as given in patent US9034891B2, “Bicyclic heterocyclic spiro compounds” (ISRAEL INSTITUTE FOR BIOLOGICAL RESEARCH, priority 2009, dated 2015).
Values joined by “and” are separate entries in the source; they are usually repeats but may differ in a detail not shown here. Equal entries are not always repeated. Where two headings read alike, the source gives them in different places.

Key:
Mu Receptor = Mu Receptor (Homo sapiens, UniProt P35372); test: Functional study, agonist
Description: (§1) It was specifically designed to provide information not only on potential limitations of drug candidates, but also for off-target activity identification. […] In a further extension of this study, functional studies were done on most of these receptors.

5HT2B Receptor = 5HT2B Receptor (Homo sapiens, UniProt P41595); test: Functional study, agonist; conditions: 100 μM
Sequence of 5HT2B Receptor (P41595 whole entry): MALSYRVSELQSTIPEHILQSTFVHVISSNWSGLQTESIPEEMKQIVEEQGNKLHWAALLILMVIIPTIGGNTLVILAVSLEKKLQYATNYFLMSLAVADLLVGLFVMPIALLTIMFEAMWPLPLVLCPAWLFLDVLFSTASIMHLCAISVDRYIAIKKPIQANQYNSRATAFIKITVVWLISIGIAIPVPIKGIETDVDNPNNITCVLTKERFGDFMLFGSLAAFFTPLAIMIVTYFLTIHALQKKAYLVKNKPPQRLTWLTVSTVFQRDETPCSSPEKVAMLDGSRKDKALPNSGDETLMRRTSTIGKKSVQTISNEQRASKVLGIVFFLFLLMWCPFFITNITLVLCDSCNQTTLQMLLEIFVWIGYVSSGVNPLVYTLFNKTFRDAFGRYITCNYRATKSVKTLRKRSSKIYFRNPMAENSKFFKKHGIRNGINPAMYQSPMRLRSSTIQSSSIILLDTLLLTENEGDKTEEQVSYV
Description: as §1

PC12M1 cells = test: Mitochondrial apoptosis pathway, Bax and Bcl-2 immunoreactivity in PC12M1 cells; set-up: Emax: dose or concentration left out as unconfirmed
Description: (§2) These cells were partially differentiated (2-3 days), as observed under microscope. […] The pellet (rich mitochondrial fraction) was re-suspended with 200 μl Ripa buffer and lysed by rapid passage through a syringe needle (23G) for five to six times. The lysate was then used for further evaluation.
(§3) Bands were probed using the Rabbit Bax antibody (1:1000, Cell signaling, Cat. No. 2772) and Rabbit Bcl-2 antibody (1:1000, Cell signaling, Cat. No. 2870) followed by anti rabbit IgG (H&L) HRP (1:5,000, Jackson Immuno Research, 111-035-144).

α-4β2 nicotinic receptor = α-4β2 nicotinic receptor (Homo sapiens, UniProt P17787+P43681); test: Binding to α4β2 nicotinic receptor; conditions: 0.1 nM-10 μM
Sequence of α-4β2 nicotinic receptor (P43681 29-627 limits assumed): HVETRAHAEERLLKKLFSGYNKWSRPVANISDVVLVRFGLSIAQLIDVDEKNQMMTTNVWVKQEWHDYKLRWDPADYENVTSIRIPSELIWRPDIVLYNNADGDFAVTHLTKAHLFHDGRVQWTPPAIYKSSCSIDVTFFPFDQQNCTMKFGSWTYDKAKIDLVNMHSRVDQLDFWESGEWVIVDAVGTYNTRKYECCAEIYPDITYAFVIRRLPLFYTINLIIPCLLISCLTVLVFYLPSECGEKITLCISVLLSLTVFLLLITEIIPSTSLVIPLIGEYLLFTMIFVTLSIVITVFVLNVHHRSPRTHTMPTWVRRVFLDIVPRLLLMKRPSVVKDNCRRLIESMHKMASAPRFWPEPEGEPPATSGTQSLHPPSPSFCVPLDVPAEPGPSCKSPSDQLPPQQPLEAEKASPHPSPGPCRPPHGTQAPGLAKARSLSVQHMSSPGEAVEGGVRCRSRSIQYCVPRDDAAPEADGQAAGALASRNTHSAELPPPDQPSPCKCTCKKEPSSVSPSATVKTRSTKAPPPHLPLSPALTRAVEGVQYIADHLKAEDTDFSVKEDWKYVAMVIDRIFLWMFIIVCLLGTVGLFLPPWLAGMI
Sequence of α-4β2 nicotinic receptor (P17787 26-502): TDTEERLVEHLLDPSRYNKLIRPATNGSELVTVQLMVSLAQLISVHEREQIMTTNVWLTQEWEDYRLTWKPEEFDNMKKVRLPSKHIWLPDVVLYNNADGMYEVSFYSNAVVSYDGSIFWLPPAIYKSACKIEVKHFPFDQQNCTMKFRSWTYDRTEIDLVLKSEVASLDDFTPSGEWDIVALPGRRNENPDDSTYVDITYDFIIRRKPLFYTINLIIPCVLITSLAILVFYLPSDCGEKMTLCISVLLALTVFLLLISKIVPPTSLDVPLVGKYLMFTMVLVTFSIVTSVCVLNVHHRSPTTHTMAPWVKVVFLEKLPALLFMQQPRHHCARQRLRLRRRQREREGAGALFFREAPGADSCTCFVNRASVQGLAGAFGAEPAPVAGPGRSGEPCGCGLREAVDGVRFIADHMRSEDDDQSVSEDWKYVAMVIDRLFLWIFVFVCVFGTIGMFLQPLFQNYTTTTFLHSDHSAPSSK
Description: as §1

rats = test: Passive avoidance, MK-801-induced impairment in rats; assay type: in vivo, rat
Description: Trihexyphenidyl is a selective M1 muscarinic antagonist that crosses the blood brain barrier and induces memory and learning impairments (Bymaster et al., J Pharmacol Exp. Ther. 267: 16-24, 1993; Roldan et al., Neurosci. Lett. 230: 93-96, 1997; Kimura et al., Brain Res. 834: 6-12, 1999). […] Naive Wistar rats were used in the experiments below. The passive avoidance (PA) task consists of a training (acquisition) phase and a retention phase. In the training procedure each rat was individually placed in the small illuminated compartment and after 60 s. of familiarization/adaptation, the door to the large compartment was opened and the latency to enter was measured (Initial Latency) Immediately following entry into the dark compartment, the door was closed and inescapable foot shock (0.6 mA for 3 s) was delivered through the grid floor. […] After the acquisition trial the rat was returned to its home cage. Retention of the passive avoidance task was measured 24 h later, by again placing the rat in the light compartment and after a 60 s adaptation interval, the door was opened and the latency to re-enter the dark compartment was measured. […] Two separate experiments were conducted. […] In both experiments the rats were divided into 2 groups. One main group was treated with trihexyphenidyl (5 mg/kg, s.c) and the second main group was treated with vehicle (DDW-1 ml/kg, s.c.), 30 min before the shock.
MK-801 is an NMDA antagonist that induces cognitive behavioral impairments in rodents. […] In the first experiment (dose-finding study of MK-801) rats were divided into 4 groups. Three groups (N=27) were treated with MK-801 (50, 80 or 100 μg/kg, s.c) and the fourth group (N=10) was treated with vehicle (saline-1 ml/kg, s.c.), 30 min before the shock. […] One group (N=80) was treated with MK-801 (80 μg/kg, s.c) and the second group (N=59) was treated with the vehicle (saline-1 ml/kg, s.c.).

M1 mAChR [1] = target: T1, M1 mAChR (Rattus norvegicus, UniProt P08482); test: biochemical
T1 sequence (P08482 1-460): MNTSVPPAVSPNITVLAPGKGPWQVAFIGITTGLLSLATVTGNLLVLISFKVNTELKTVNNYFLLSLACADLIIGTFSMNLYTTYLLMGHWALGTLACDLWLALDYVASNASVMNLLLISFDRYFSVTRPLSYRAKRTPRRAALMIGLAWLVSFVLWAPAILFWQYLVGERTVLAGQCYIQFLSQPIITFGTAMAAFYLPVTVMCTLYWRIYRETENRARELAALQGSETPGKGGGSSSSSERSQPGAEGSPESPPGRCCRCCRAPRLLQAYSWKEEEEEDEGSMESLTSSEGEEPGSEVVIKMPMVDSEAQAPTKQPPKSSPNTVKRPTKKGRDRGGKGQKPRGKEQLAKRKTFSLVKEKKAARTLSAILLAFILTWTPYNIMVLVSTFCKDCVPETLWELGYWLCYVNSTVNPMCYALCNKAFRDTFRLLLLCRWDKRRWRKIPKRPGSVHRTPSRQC

M1 mAChR [2] = target: T1, M1 mAChR; conditions: [3H]PZ, rat cortical membranes
ERK 1/2 phosphorylation = test: Phospho-p44/42 MAPK (ERK 1/2) detection in PC12M1 cells; assay type: cell-based, rat; conditions: 3 hours
PC12 cells = test: Mitochondrial apoptosis pathway, Bax and Bcl-2 immunoreactivity in PC12 cells; assay type: cell-based, rat
Description: as §2, §3

sigma 2 receptor = sigma 2 receptor (Homo sapiens, UniProt Q5BJF2); test: Binding to sigma 2 receptor; conditions: 0.1 nM-10 μM
Sequence of sigma 2 receptor (Q5BJF2 whole entry, species assumed): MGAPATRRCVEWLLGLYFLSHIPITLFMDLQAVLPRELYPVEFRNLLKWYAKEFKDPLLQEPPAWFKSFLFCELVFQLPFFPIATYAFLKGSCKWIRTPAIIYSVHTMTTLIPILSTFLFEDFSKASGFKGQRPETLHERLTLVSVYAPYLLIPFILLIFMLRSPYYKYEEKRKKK
Description: as §1

α7 nicotinic receptor = α7 nicotinic receptor (Homo sapiens, UniProt P36544); test: Binding to α7 nicotinic receptor; conditions: 0.1 nM-10 μM
Sequence of α7 nicotinic receptor (P36544 23-502): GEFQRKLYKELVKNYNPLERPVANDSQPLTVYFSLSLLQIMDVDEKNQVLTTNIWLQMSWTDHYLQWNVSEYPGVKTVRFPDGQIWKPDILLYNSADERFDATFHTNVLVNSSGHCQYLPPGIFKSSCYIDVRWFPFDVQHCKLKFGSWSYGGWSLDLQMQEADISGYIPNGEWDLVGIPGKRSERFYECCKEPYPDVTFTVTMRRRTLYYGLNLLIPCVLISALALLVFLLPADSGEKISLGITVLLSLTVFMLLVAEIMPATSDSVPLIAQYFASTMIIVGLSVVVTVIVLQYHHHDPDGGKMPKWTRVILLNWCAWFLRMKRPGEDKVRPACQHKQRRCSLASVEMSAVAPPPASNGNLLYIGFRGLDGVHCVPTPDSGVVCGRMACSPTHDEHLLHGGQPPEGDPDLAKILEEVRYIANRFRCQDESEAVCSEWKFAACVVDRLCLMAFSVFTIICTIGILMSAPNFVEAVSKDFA
Description: as §1

tau protein = test: Tau-1 (unphosphorylated tau) western blot in PC12 cells transfected with M1 mAChR, +Aβ25-35; assay type: cell-based, rat; conditions: 100 μM-1 nM; Aβ25-35 20 μM
Description: Anti-GSK-3 (Santa Cruz Biotechnology) is a phosphorylation-independent monoclonal antibody reactive with both GSK-3α and GSK3β. In the same experiments the status of tau protein phosphorylation was studied using mouse anti Tau-1 monoclonal antibody (Chemicon, CAT number MAB3420), which recognizes an unphosphorylated epitope of tau.

Sequence of Mu Receptor (P35372 whole entry): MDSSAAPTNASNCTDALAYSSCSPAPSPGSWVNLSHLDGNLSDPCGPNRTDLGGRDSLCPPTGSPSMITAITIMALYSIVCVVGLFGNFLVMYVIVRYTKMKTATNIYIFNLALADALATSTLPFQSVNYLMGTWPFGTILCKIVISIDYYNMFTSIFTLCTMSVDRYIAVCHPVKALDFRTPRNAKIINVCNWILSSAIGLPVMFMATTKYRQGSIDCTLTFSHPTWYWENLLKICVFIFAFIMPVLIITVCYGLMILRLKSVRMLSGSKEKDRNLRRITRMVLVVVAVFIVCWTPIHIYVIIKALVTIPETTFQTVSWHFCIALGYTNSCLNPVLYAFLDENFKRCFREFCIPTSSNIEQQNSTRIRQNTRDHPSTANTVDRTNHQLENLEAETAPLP

C[C@@H]1SC2(CCN(C)CC2)CN1C(=O)CCc1c[nH]c2ccccc12 (single isomer, unassigned) [AF710B]
EC50 (Mu Receptor): 13 µM
partial agonist efficacy on 5HT2B receptor (5HT2B Receptor): 17%
Bax elevation after NGF deprivation (PC12M1 cells; PC12M1 cells): attenuated Bax elevation
Bcl-2, maximum effect (PC12M1 cells; PC12M1 cells, Aβ 25-35, 1 nM): 164±32% of control
Emax (PC12M1 cells; Rattus norvegicus, read-out: Aβ 25-35 induced neurotoxicity expressed as Bax/Bcl2, maximum effect): 18%
binding to α-4β2 nicotinic receptor (α-4β2 nicotinic receptor): does not bind
retention latency (rats; 10 μg/kg po, MK-801 80 μg/kg sc, MK-801+DDW 94.7±24.7): 336.3 ± 70 s and 336.3 ± 70.0 s
retention latency (rats; 30 μg/kg po, MK-801 80 μg/kg sc): 370.0 ± 60 s and 370.0 ± 57.0 s
retention latency (rats; 100 μg/kg po, MK-801 80 μg/kg sc): 325.6 ± 66.6 s
retention latency vs. MK-801 rats treated with DDW (rats; 1, 3 and 5 or 300 μg/kg, po): not significantly different
retention latency (rats; AF710B 10 μg/kg with NE-100 1 mg/kg, MK801 80 μg/kg): 184.8 ± 58.0 s
retention latency (rats; AF710B 30 μg/kg with NE-100 1 mg/kg, MK801 80 μg/kg): 227.3 ± 38.5 s
cognitive enhancer dose range (rats; po, MK801-induced passive avoidance impairment): 0.01 to 0.1 mg/kg
Ki (M1 mAChR [1]): 0.046 nM
Ki (M1 mAChR [1]; KH, brucine experiment, without brucine): 0.015 nM
Ki (M1 mAChR [1]; KH, with brucine 0.1 mM): 0.034 nM
Ki (M1 mAChR [1]; KL, brucine experiment, without brucine): 34000 nM
Ki (M1 mAChR [1]; KL, with brucine 0.1 mM): 15000 nM
fraction of higher affinity binding site (M1 mAChR [2]): 29%
fraction of lower affinity binding site (M1 mAChR [2]): 71%
Ki (M1 mAChR [2]; read-out: lower affinity binding site KL): 41 µM
phospho-ERK1/2, compound alone (ERK 1/2 phosphorylation): does not increase
Bax elevation after NGF deprivation (PC12 cells): attenuated Bax elevation
Emax at 0.01 µM (PC12 cells; Rattus norvegicus, PC-12, 10 nM, read-out: Aβ 25-35 induced neurotoxicity expressed as Bax/Bcl2, maximum effect): 35%
binding to sigma 2 receptor (sigma 2 receptor): does not bind
binding to α7 nicotinic receptor (α7 nicotinic receptor): does not bind
Tau-1 staining decreased by Aβ25-35 (tau protein): restored these effects to control level
